Results as given in ChEMBL document CHEMBL1909046, “DrugMatrix in vitro pharmacology data”.

Tests used:
[1] = molecular target: Delta-type opioid receptor (Homo sapiens, UniProt P41143); format: cell membranes, HEK293, Membrane; settings: hek293; further: in other assays of this panel Not Active means under 50% inhibition at 10 µM
[2] = molecular target: Insulin receptor (Rattus norvegicus, UniProt P15127); format: cell membranes, Wistar, Liver, Membrane; further: in other assays of this panel Not Active means under 50% inhibition at 10 µM
[3] = DRUGMATRIX: Purinergic P2X radioligand binding (ligand: [3H] alpha, beta-Methylene-ATP); format: cell membranes, Oryctolagus cuniculus, New Zealand albino, Urinary bladder, Membrane; settings: Not Active = under 50% inhibition at 10 µM
[4] = molecular target: T1, Adenosine receptor A3 (Homo sapiens, UniProt P0DMS8); format: cell membranes, CHO-K1, Membrane;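 further: radioligand binding assay with AB-MECA serving as the labeled ligand; in other assays of this panel Not Active means under 50% inhibition at 10 µM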
T1 sequence (P0DMS8 whole entry): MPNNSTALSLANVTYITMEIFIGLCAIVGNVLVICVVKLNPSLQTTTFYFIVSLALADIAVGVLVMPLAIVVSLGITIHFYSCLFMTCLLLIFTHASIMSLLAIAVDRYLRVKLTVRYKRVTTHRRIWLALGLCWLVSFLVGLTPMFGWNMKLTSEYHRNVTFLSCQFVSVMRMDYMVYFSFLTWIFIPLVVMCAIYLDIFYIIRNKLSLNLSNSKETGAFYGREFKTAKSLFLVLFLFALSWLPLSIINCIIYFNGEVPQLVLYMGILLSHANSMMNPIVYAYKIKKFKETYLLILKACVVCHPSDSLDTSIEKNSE

[5] = molecular target: Nitric oxide synthase 1 (Rattus norvegicus, UniProt P29476); format: tissue-based, Cerebellum; further: in other assays of this panel Not Active means under 50% inhibition at 10 µM
[6] = molecular target: T2, C-X-C chemokine receptor type 1 (Homo sapiens, UniProt P25024); further: in other assays of this panel Not Active means under 50% inhibition at 10 µM
T2 sequence (P25024 whole entry): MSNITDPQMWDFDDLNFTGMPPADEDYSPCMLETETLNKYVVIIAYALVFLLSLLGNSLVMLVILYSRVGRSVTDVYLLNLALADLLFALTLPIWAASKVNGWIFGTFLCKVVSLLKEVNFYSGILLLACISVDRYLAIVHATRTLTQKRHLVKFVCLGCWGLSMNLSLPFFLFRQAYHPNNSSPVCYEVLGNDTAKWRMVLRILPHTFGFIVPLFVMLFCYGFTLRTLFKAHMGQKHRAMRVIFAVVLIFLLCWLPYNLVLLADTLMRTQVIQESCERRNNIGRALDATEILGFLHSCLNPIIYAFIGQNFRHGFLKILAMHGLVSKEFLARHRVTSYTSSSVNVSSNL

[7] = DRUGMATRIX: Potassium Channel [KATP] radioligand binding (ligand: [3H] Glyburide); format: cell membranes, Membrane; settings: hit-t15; Not Active = under 50% inhibition at 10 µM

Chain of Insulin receptor (P15127 27-759 limits assumed): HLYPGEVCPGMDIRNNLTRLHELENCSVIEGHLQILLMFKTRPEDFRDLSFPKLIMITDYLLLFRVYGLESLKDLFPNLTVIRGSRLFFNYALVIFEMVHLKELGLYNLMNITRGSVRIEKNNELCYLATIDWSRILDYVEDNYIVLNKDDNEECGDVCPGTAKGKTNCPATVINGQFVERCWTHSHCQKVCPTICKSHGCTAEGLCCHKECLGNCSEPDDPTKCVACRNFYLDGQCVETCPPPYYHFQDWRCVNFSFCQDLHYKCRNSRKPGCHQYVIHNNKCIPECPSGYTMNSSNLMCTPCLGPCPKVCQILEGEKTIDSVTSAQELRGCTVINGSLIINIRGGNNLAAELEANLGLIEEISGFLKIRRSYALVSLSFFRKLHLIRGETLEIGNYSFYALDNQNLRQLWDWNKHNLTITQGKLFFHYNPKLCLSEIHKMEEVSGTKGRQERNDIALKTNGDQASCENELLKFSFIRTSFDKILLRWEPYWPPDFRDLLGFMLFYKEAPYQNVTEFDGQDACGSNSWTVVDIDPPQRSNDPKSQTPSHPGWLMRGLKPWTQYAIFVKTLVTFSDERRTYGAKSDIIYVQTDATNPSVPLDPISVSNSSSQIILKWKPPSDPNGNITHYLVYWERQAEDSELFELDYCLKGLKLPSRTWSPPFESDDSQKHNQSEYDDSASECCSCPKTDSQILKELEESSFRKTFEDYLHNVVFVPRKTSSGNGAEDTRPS
Chain of Insulin receptor (P15127 764-1383 limits assumed): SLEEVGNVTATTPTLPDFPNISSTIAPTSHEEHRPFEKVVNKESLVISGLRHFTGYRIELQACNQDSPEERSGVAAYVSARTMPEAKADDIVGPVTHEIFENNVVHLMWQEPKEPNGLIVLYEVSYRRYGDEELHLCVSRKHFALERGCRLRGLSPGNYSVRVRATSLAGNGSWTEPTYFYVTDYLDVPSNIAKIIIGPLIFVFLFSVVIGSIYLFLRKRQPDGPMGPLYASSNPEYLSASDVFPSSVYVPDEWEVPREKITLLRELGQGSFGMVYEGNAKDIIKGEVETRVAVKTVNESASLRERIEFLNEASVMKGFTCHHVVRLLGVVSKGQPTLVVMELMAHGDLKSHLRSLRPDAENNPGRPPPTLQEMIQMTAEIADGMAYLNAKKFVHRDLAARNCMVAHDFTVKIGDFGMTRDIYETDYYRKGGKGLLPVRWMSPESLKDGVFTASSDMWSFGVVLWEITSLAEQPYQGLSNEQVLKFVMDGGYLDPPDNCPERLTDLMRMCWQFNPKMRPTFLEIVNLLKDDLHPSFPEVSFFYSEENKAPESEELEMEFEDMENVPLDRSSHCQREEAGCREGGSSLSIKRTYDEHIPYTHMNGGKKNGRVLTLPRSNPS
Chain of Nitric oxide synthase 1 (P29476 whole entry): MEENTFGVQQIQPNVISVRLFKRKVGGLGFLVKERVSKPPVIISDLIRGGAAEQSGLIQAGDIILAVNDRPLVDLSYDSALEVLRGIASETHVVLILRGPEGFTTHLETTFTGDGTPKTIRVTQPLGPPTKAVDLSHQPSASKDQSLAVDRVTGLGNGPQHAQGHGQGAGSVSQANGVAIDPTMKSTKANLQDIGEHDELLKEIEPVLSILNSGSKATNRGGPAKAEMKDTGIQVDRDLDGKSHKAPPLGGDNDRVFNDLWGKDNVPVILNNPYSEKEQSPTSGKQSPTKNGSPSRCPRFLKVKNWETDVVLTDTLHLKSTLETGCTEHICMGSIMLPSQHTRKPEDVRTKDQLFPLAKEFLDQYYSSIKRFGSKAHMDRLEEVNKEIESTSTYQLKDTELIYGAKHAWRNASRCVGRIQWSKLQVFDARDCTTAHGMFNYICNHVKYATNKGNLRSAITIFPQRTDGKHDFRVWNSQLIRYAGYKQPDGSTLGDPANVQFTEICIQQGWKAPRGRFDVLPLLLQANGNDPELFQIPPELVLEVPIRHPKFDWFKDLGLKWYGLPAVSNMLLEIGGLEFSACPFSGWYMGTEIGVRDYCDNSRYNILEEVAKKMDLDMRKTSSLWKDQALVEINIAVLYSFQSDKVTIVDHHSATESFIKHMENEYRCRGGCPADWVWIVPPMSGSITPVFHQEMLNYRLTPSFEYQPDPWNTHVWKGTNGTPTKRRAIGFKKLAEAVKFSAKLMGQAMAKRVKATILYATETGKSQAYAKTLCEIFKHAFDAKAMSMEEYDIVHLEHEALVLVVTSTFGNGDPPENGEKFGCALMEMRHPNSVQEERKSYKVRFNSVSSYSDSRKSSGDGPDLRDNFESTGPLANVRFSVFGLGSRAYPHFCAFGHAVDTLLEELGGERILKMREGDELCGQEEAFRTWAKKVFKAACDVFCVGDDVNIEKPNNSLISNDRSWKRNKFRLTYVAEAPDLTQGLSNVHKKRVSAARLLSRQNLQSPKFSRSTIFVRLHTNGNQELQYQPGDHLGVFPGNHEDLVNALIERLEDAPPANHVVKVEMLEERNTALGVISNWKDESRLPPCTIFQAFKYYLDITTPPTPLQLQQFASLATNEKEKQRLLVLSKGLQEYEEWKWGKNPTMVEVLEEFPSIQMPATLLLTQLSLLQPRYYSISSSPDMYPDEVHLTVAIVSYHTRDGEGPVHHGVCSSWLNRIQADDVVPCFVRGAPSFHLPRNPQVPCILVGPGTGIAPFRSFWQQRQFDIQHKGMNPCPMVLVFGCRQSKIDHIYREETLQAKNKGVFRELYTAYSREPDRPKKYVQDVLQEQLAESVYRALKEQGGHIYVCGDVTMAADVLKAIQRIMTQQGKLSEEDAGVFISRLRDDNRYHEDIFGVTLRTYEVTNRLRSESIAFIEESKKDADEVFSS
Chain of Delta-type opioid receptor (P41143 whole entry): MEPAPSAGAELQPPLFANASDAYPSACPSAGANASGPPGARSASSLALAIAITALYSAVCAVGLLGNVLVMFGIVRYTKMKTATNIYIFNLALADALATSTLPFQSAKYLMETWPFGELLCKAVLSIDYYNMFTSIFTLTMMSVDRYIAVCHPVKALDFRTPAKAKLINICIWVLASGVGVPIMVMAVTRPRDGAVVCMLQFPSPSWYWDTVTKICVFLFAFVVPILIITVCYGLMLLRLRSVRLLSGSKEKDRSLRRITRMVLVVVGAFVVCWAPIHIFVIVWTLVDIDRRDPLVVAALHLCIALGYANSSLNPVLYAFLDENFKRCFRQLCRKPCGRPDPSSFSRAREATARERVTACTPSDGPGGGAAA

| Compound | IC50 [1] | IC50 [2] | IC50 [3] | Ki [3] | IC50 ([4]; cho-k1) | IC50 [5] | IC50 [6] | IC50 [7] | Ki [7] | IC50 ([4]; read-out: IC50) | Ki ([4]; read-out: Ki) | Ki [1] | Ki [2] | Ki ([4]; cho-k1) | Ki [5] | Ki [6] | Ki ([4]; cho-k1, read-out: Ki) |
| --- | --- | --- | --- | --- | --- | --- | --- | --- | --- | --- | --- | --- | --- | --- | --- | --- | --- |
| NC[C@H]1O[C@H](O[C@H]2[C@H](O)[C@@H](O[C@H]3O[C@H](CO)[C@@H](O)[C@H](N)[C@H]3O)[C@H](N)C[C@@H]2N)[C@H](N)C[C@@H]1O [TOBRAMYCIN] | Not Active | Not Active | Not Active | Not Active | Not Active | Not Active | Not Active | Not Active | Not Active | – | – | – | – | – | – | – | – |
| O=C(O)C(Cl)(Cl)Cl [TRICHLOROACETIC ACID] | Not Active | Not Active | Not Active | Not Active | Not Active | Not Active | Not Active | Not Active | Not Active | – | – | – | – | – | – | – | – |
| COc1ccc(CN2CCNCC2)c(OC)c1OC [TRIMETAZIDINE] | Not Active | Not Active | Not Active | Not Active | Not Active | Not Active | Not Active | Not Active | Not Active | – | – | – | – | – | – | – | – |
| CC(=O)O[C@H]1C[C@@H]2CC[C@@H]3[C@H](CC[C@@]4(C)[C@H]3C[C@H]([N+]3(C)CCCCC3)[C@@H]4OC(C)=O)[C@@]2(C)C[C@@H]1N1CCCCC1.[Br-] [VECURONIUM BROMIDE] | Not Active | Not Active | Not Active | Not Active | Not Active | Not Active | Not Active | Not Active | Not Active | – | – | – | – | – | – | – | – |
| COc1cc(C(=O)NS(=O)(=O)c2ccccc2C)ccc1Cc1cn(C)c2ccc(NC(=O)OC3CCCC3)cc12 [ZAFIRLUKAST] | Not Active | Not Active | Not Active | Not Active | – | Not Active | Not Active | Not Active | Not Active | 1360 nM | 770 nM | – | – | – | – | – | – |
| Cc1cn([C@H]2C[C@H](N=[N+]=[N-])[C@@H](CO)O2)c(=O)[nH]c1=O [ZIDOVUDINE] | Not Active | Not Active | Not Active | Not Active | Not Active | Not Active | Not Active | Not Active | Not Active | – | – | – | – | – | – | – | – |
| STANNOUS FLUORIDE | Not Active | Not Active | Not Active | Not Active | Not Active | Not Active | Not Active | Not Active | Not Active | – | – | Not Active | Not Active | Not Active | Not Active | Not Active | – |
| THIMEROSAL | Not Active | Not Active | Not Active | Not Active | – | Not Active | Not Active | Not Active | Not Active | – | – | Not Active | Not Active | – | Not Active | Not Active | 1910 nM |
